# Where “and” joins values, the source holds several entries; their conditions need not be identical. Equal entries are not always repeated. Where two headings read alike, the source gives them in different places.
# What was measured:
# MUTE = target: T1, MUTE (Arabidopsis thaliana, UniProt Q9M8K6); assay: BLI direct binding; design: species or system A. thaliana
# T1 construct: MUTE (1-202); made in house; host or cells: E. coli BL21
# Source text: (§1) A. thaliana SCRM (1-494), ΔNSPCH (98-364), MUTE (1-202), ΔNFAMA (190-414), MUTEΔC (1-114), MUTER133A_R134A, MUTEE162A_E163A, MUTER133A_R134A_E162A_E163A, SCRM-ACTL (405-494), MUTE-ACTL (114-202), SPCH-ACTL (285-364), FAMA-ACTL (306-414), MUTE_ACTLR133A_R134A, MUTE_ACTLE162A_E163A, MUTE_ACTLR133A_R134A_E162A_E163A were cloned into pGEX-4T-1 vector with an N-terminal GST tag and a thrombin cleavage sequence. For protein expression, the constructs were transformed into E. coli strain BL21. For each transformant, a single colony was selected and incubated in 10 ml LB liquid media. The overnight-incubated E. coli suspensions were transferred to 1 L LB medium and incubated at 37 °C for around 2 h until the OD600 reached 0.4–0.6. The isopropyl β-D-1-thiogalactopyranoside ([…] of final concentration) was added to the cultures and the strains were incubated at 22 °C for a further 18 h. GST-fused proteins were purified using glutathione agarose resin. The soluble portion of the cell lysate was loaded onto a GST-Sepharose column. Nonspecifically bound proteins were removed by washing the column with 20 mM Tris pH 8.0, 200 mM NaCl. The bound GST-fused protein was eluted with 10 mm glutathione and 20 mM Tris pH 8.0, 200 mM NaCl. The GST-fused proteins were exchanged with phosphate-buffered saline buffer, and then the solution was treated with 50 μg of thrombin for 10–12 h at 16 ^οC. The GST portion of the protein was cleaved during thrombin digestion, and then the whole solution was reloaded onto the glutathione S-transferase column to obtain pure protein. The purified proteins were further purified by gel filtration on a Superdex-200 (GE) column using fast protein liquid chromatography and phosphate buffer (pH 7.2) as the eluent. The purity of the protein was checked by SDS-PAGE. For detailed lists of oligo DNA and plasmid information, see Supplementary Tables 5, 6, respectively.
# (§2) The binding affinities of SCRM to MUTE / MUTER133A_R134A / MUTEE162A_E163A / MUTER133A_R134A_E162A_E163A in presence and absence of Stomidazolone (3) and its analogues (AYSJ1059 (5) and AYSJ1061 (6)), and Stomidazolone / AYSJ1059 / AYSJ1061 interactions with GST-tagged SCRM, MUTE, SPCH, FAMA, MUTE ΔACTL, MUTE_ACTL, SCRM_ACTL, SPCH_ACTL and FAMA_ACTL, MUTER133A_134A, MUTEE162A_E163A, MUTER133A_R134A_E162A_E163A were measured using the Octet Red96 system (ForteBio, Pall Life Sciences) following the manufacturer’s protocols. The optical probes coated with anti-GST were first loaded with 500 nM GST tagged proteins before kinetic binding analyses. The experiment was performed in 96-well plates maintained at 30 °C. Each well was loaded with 200 μL reaction volume for the experiment. The binding buffer used in these experiments contained 1× PBS supplemented with 2% DMSO, 0.02% Tween20. […] There was no binding of the analytes to the unloaded probes as shown by the control wells. Binding kinetics to all seven concentrations of the analytes were measured simultaneously using default parameters on the instrument. The data were analyzed using the Octet data analysis software. The association and dissociation curves were fit with the 1:1 homogeneous ligand model. The kobs (observed rate constant) values were used to calculate Kd, with steady-state analysis of the direct binding. See Supplementary Table 3 for details.
# SCRM = target: T2, SCRM (Arabidopsis thaliana, UniProt Q9LSE2); assay: BLI direct binding; design: species or system A. thaliana
# T2 construct: SCRM (1-494); made in house; host or cells: E. coli BL21
# T2 sequence (Q9LSE2 1-494): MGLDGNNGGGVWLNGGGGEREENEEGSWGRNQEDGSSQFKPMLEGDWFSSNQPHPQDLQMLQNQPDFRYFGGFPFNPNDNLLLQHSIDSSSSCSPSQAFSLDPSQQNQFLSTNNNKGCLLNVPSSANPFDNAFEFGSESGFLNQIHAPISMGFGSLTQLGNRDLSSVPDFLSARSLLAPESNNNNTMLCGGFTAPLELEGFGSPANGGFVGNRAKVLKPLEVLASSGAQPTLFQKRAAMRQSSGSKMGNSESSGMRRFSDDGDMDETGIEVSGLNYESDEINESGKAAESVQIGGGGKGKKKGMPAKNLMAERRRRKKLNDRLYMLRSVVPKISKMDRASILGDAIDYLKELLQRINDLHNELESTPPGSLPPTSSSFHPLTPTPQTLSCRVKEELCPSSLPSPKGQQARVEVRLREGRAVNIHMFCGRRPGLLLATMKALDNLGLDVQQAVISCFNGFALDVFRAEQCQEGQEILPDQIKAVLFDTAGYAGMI
# Source text: as §1, §2
# T1 sequence (Q9M8K6 whole entry): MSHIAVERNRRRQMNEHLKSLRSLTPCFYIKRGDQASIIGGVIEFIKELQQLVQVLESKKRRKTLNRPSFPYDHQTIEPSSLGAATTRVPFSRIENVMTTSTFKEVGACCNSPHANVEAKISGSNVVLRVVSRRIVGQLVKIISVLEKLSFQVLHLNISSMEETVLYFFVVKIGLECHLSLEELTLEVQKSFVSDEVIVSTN
compound,measurement,setting,value
O=C1C(c2ccccc2)=NC(NS(=O)(=O)c2ccccc2)(c2ccccc2)N1S(=O)(=O)c1ccccc1 (stereo not shown) [Stomidazolone],Kd,"MUTE; BLI steady state, MUTE, read-out: KD (SS)",0.0089 ± 0.0012 mM
same,kdis,"MUTE; MUTE loaded on Anti-GST sensor, fit per sensor, Stomid Conc. 200-3.12, rep-1, rep-2",0.0392 s⁻¹ and 0.0391 s⁻¹
same,Kd,"MUTE; MUTE loaded on Anti-GST sensor, fit per sensor, Stomid Conc. (mM) 200-3.12, rep-1, rep-2, read-out: KD",0.00896 mM and 0.00929 mM and 0.00909 mM and 0.0092 mM and 0.00905 mM and 0.00911 mM and 0.0091 mM and 0.00897 mM and 0.00907 mM and 0.00902 mM and 0.00906 mM
same,RMax,"MUTE; MUTE, Conc. 3.12, rep-1, rep-2",0.125 and 0.165
same,Req/Rmax(%),"MUTE; MUTE, Conc. 3.12, rep-1, rep-2",100%
same,Response,"MUTE; MUTE, Conc. 3.12, rep-1, rep-2",0.1223 and 0.1634
same,RMax,"MUTE; MUTE, Conc. 6.25, rep-1, rep-2",0.275 and 0.215
same,Req/Rmax(%),"MUTE; MUTE, Conc. 6.25, rep-1, rep-2",97% and 100%
same,Response,"MUTE; MUTE, Conc. 6.25, rep-1, rep-2",0.2732 and 0.2105
same,RMax,"MUTE; MUTE, Conc. 12.5, rep-1, rep-2",0.425 and 0.395
same,Response,"MUTE; MUTE, Conc. 12.5, rep-1, rep-2",0.4108 and 0.3912
same,RMax,"MUTE; MUTE, Conc. 25, rep-1, rep-2",0.525 and 0.47
same,Response,"MUTE; MUTE, Conc. 25, rep-1, rep-2",0.5211 and 0.4645
same,RMax,"MUTE; MUTE, Conc. 50, rep-1, rep-2",0.55 and 0.585
same,Req/Rmax(%),"MUTE; MUTE, Conc. 50, rep-1, rep-2",89%
same,Response,"MUTE; MUTE, Conc. 50, rep-1, rep-2",0.5313 and 0.5832
same,RMax,"MUTE; MUTE, Conc. 100, rep-1, rep-2",0.605 and 0.635
same,Response,"MUTE; MUTE, Conc. 100, rep-1, rep-2",0.5932 and 0.6302
same,RMax,"MUTE; MUTE, Conc. 200, rep-1, rep-2",0.615 and 0.645
same,Req/Rmax(%),"MUTE; MUTE, Conc. 200, rep-1, rep-2",98%
same,Response,"MUTE; MUTE, Conc. 200, rep-1, rep-2",0.606 and 0.634
same,koff,"MUTE; read-out: kdis(1/s), MUTE loaded on Anti-GST sensor, fit per sensor, Stomid Conc. 200-3.12, rep-1, rep-2",0.0393 s⁻¹
same,kon,"MUTE; read-out: kon(1/Ms), MUTE loaded on Anti-GST sensor, fit per sensor, Stomid Conc. 200-3.12, rep-1, rep-2",4380 M⁻¹ s⁻¹
same,Kd,"SCRM; BLI steady state, read-out: KD (SS)",68.5 ± 5.6 µM
same,Kd,"SCRM; BLI, read-out: KD",65.5 ± 0.6 µM
